The record followed here is patent US12509431B2, “1,4-dihydroquinazolinone compounds and uses thereof” (Edgewise Therapeutics, Inc., priority 2022, dated 2025).

What all share (format): biochemical
Common to all, as to settings: Table 8

Assay [1] deals with Rabbit Skeletal myofibrils (rabbit psoas muscle). Description: Myofibril ATPase assay (PK/LDH NADH-coupled), skeletal myofibrils. An outline of the steps:
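ATPase rate taken as linear-regression slope of A340 (NADH depletion through PK/LDH coupling) over a 75 min kinetic read, with psoas-derived rabbit skeletal myofibrils at pH 7.0. Four-parameter fits of vehicle-normalized activity give EC25 and, where reached, EC50.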

Assay [2] relates to Porcine Atria myofibrils. Description: Myofibril ATPase assay (PK/LDH NADH-coupled), atria myofibrils. An outline of the steps:
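Values are EC25% (and, for inhibitors, EC50%) from 4-parameter logistic fits of activity normalized to vehicle wells. Rates came from linear regression of 340 nm kinetic reads (every 1.5-2 min, 75 min) of NADH-coupled ATP turnover by porcine atria myofibrils.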

Assay [3] addresses T1, Porcine Ventricle myofibrils (left ventricle of Yucatan minipigs) (Sus scrofa, UniProt P79293).
T1 construct: Myofibrils from porcine cardiac muscle was isolated from the left ventricle of Yucatan minipigs; tissue Exemplar Genetics; host or cells: left ventricle of Yucatan minipigs
Description: Myofibril ATPase assay (PK/LDH NADH-coupled), ventricle myofibrils. An outline of the steps: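 NADH depletion (A340) coupled through pyruvate kinase/lactate dehydrogenase reports ATPase rate of porcine left-ventricle myofibrils over 75 min kinetic reads. Regression slopes, vehicle-normalized, fitted by 4-parameter logistic give EC25 and, where available, EC50.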

T1 sequence (P79293 whole entry): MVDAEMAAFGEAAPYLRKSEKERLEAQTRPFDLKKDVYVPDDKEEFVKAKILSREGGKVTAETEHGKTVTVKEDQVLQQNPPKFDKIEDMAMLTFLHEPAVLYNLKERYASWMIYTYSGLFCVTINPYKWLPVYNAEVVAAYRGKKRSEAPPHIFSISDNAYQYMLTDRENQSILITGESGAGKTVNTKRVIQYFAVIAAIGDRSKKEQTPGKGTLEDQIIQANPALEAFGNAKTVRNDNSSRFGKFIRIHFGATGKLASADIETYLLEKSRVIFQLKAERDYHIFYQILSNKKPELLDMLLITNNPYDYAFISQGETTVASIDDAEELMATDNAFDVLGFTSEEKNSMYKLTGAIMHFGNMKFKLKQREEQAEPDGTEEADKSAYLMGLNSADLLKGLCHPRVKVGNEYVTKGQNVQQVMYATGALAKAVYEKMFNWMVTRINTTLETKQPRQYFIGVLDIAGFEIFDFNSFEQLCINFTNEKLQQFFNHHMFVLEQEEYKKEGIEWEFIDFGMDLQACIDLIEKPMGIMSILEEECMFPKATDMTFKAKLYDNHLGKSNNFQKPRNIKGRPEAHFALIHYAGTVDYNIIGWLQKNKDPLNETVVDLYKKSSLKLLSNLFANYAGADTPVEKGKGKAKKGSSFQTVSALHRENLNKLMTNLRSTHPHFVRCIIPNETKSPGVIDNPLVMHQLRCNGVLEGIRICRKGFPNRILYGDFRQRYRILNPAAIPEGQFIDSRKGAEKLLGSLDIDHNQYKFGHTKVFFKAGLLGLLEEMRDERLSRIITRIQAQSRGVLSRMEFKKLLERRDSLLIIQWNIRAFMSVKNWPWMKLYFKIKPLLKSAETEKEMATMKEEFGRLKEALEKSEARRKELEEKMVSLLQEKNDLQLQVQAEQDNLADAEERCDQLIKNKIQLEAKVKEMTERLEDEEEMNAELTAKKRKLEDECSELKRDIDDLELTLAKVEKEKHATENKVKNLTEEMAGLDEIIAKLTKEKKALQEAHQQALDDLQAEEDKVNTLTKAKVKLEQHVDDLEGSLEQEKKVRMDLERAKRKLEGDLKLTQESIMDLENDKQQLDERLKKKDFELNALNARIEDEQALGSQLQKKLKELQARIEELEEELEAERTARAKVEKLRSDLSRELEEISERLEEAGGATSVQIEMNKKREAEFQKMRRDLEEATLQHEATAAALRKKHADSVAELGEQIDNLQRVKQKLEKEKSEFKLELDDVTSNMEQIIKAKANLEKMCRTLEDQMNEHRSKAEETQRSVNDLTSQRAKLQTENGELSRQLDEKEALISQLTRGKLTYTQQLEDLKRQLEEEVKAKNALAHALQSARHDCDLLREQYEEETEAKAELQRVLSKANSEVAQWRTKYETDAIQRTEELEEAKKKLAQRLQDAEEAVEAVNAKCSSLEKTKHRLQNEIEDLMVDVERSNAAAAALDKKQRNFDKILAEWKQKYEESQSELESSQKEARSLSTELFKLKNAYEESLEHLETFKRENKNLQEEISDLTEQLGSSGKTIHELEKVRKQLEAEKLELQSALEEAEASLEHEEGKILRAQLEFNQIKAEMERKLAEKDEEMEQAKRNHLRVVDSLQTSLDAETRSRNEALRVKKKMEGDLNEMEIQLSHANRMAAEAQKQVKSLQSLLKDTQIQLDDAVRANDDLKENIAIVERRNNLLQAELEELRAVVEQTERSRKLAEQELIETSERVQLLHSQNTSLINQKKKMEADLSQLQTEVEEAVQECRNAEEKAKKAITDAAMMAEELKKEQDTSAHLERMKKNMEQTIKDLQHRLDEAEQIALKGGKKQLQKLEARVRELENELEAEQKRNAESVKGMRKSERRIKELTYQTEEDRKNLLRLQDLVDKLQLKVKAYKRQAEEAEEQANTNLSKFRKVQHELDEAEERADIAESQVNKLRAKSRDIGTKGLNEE

For `N#Cc1cnc2c(c1)OC[C@H]2NC(=O)CN1C(=O)Nc2cccc(C#N)c2C12CC2` [Compound B310], the “Rabbit Psoas IC25” value in assay [1] is 80 nM. Moreover, the “Porcine Atria IC25” value in assay [2] stood at 160 nM. The “Porcine Ventricle IC25” value in assay [3] is 370 nM.
In the case of `N#Cc1cnc2c(c1)OC[C@@H]2NC(=O)CN1C(=O)Nc2cccc(C#N)c2C12CC2` [Compound B311], in assay [1], the “Rabbit Psoas IC25” value was 100000 nM. Also, in assay [2], the “Porcine Atria IC25” value is 100000 nM. Moreover, the “Porcine Ventricle IC25” value in assay [3] was determined as 86790 nM.
As for `Cc1cccc2c1C1(CC1)N(CC(=O)N[C@@H]1COc3cc(C#N)cc(F)c31)C(=O)N2` [Compound B312], in assay [1], the “Rabbit Psoas IC25” value is 50 nM. The “Porcine Atria IC25” value in assay [2] amounted to 100 nM. Moreover, the “Porcine Ventricle IC25” value in assay [3] was 180 nM.
As for `Cc1cccc2c1C1(CC1)N(CC(=O)N[C@H]1COc3cc(C#N)cc(F)c31)C(=O)N2` [Compound B313], in assay [1], the “Rabbit Psoas IC25” value is 9120 nM. Also, the “Porcine Atria IC25” value in assay [2] came out at 2290 nM. For the same compound, the “Porcine Ventricle IC25” value in assay [3] came to 3910 nM.
`C[C@@H](NC(=O)CN1C(=O)Nc2ccc(F)c(F)c2C12CC2)c1cnc(C#N)cn1` [Compound B314]: the “Rabbit Psoas IC25” value in assay [1] turned out to be 120 nM. The “Porcine Atria IC25” value in assay [2] turned out to be 40 nM. In addition, in assay [3], the “Porcine Ventricle IC25” value amounted to 500 nM.
For `C[C@H](NC(=O)CN1C(=O)Nc2ccc(F)c(F)c2C12CC2)c1cnc(C#N)cn1` [Compound B315], in assay [1], the “Rabbit Psoas IC25” value was determined as 20 nM. Also, the “Porcine Atria IC25” value in assay [2] came to 50 nM. The “Porcine Ventricle IC25” value in assay [3] is 90 nM.
Turning to `N#Cc1cc(F)c2c(c1)OC[C@H]2NC(=O)CN1C(=O)Nc2ccc(F)c(F)c2C12CC2` [Compound B319], the “Rabbit Psoas IC25” value in assay [1] is 5960 nM. Moreover, the “Porcine Atria IC25” value in assay [2] worked out at 70 nM. In addition, the “Porcine Ventricle IC25” value in assay [3] amounted to 100 nM.
Regarding `N#Cc1cc(F)c2c(c1)OC[C@@H]2NC(=O)CN1C(=O)Nc2ccc(F)c(F)c2C12CC2` [Compound B320], the “Rabbit Psoas IC25” value in assay [1] came to 330 nM. Moreover, in assay [2], the “Porcine Atria IC25” value is 230 nM. In assay [3], the “Porcine Ventricle IC25” value worked out at 240 nM.
Turning to `N#Cc1cnc2c(c1)OC[C@H]2NC(=O)CN1C(=O)Nc2ccc(F)c(F)c2C12CC2` [Compound B321], the “Rabbit Psoas IC25” value in assay [1] amounted to 230 nM. Moreover, the “Porcine Atria IC25” value in assay [2] is 170 nM. In addition, the “Porcine Ventricle IC25” value in assay [3] is 970 nM.
Take `N#Cc1cnc2c(c1)OC[C@@H]2NC(=O)CN1C(=O)Nc2ccc(F)c(F)c2C12CC2` [Compound B322]: the “Rabbit Psoas IC25” value in assay [1] worked out at 30 nM. The “Porcine Atria IC25” value in assay [2] worked out at 70 nM. The “Porcine Ventricle IC25” value in assay [3] was 60 nM.
Take `C[C@@H](NC(=O)CN1C(=O)Nc2ccc(F)c(F)c2C12CC2)c1ncc(C#N)cc1F` [Compound B323]: the “Rabbit Psoas IC25” value in assay [1] is 630 nM. For the same compound, in assay [2], the “Porcine Atria IC25” value is 100 nM. Further, in assay [3], the “Porcine Ventricle IC25” value was 320 nM.
On the same counts, the results for `C[C@H](NC(=O)CN1C(=O)Nc2ccc(F)c(F)c2C12CC2)c1ncc(C#N)cc1F` [Compound B324] are 30 nM, 40 nM and 50 nM.
Regarding `Cc1nc(C#N)cnc1[C@@H](C)NC(=O)CN1C(=O)Nc2ccc(F)c(F)c2C12CC2` [Compound B325], the “Rabbit Psoas IC25” value in assay [1] is 2340 nM. Also, the “Porcine Atria IC25” value in assay [2] turned out to be 1040 nM. Also, the “Porcine Ventricle IC25” value in assay [3] was 3210 nM.
As for `Cc1nc(C#N)cnc1[C@H](C)NC(=O)CN1C(=O)Nc2ccc(F)c(F)c2C12CC2` [Compound B326], the “Rabbit Psoas IC25” value in assay [1] was 20 nM. Besides, the “Porcine Atria IC25” value in assay [2] is 160 nM. Further, in assay [3], the “Porcine Ventricle IC25” value worked out at 60 nM.
On the same counts, the results for `Cc1cc(C#N)nnc1[C@@H](C)NC(=O)CN1C(=O)Nc2ccc(F)cc2C12CC2` [Compound B328] are 100000 nM, 1530 nM and 100000 nM.
`Cc1cc(C#N)nnc1[C@H](C)NC(=O)CN1C(=O)Nc2ccc(F)cc2C12CC2` [Compound B329]: in assay [1], the “Rabbit Psoas IC25” value was found to be 130 nM. In assay [2], the “Porcine Atria IC25” value turned out to be 200 nM. In assay [3], the “Porcine Ventricle IC25” value came to 420 nM.
In the case of `Cc1nc(C#N)cnc1[C@@H](C)NC(=O)CN1C(=O)Nc2ccc(F)cc2C12CC2` [Compound B330], in assay [1], the “Rabbit Psoas IC25” value came to 50 nM. In assay [2], the “Porcine Atria IC25” value is 80 nM. Further, in assay [3], the “Porcine Ventricle IC25” value turned out to be 190 nM.
Turning to `Cc1nc(C#N)cnc1[C@H](C)NC(=O)CN1C(=O)Nc2ccc(F)cc2C12CC2` [Compound B331], the “Rabbit Psoas IC25” value in assay [1] amounted to 100000 nM. The “Porcine Atria IC25” value in assay [2] worked out at 370 nM. In addition, in assay [3], the “Porcine Ventricle IC25” value is 66750 nM.
As for `Cc1nc(C#N)ncc1[C@@H](C)NC(=O)CN1C(=O)Nc2ccc(F)cc2C12CC2` [Compound B332], the “Rabbit Psoas IC25” value in assay [1] was 60 nM. Further, the “Porcine Atria IC25” value in assay [2] turned out to be 60 nM. The “Porcine Ventricle IC25” value in assay [3] worked out at 100 nM.
Regarding `Cc1nc(C#N)ncc1[C@H](C)NC(=O)CN1C(=O)Nc2ccc(F)cc2C12CC2` [Compound B333], in assay [1], the “Rabbit Psoas IC25” value was 100000 nM. The “Porcine Atria IC25” value in assay [2] is 100000 nM. Moreover, the “Porcine Ventricle IC25” value in assay [3] came out at 100000 nM.
Consider `C[C@@H](NC(=O)CN1C(=O)Nc2ccc(F)cc2C12CC2)c1ccc(C#N)nn1` [Compound B334], for which, in assay [1], the “Rabbit Psoas IC25” value worked out at 1020 nM. For the same compound, in assay [2], the “Porcine Atria IC25” value worked out at 580 nM. The “Porcine Ventricle IC25” value in assay [3] amounted to 1560 nM.
Consider `C[C@H](NC(=O)CN1C(=O)Nc2ccc(F)cc2C12CC2)c1ccc(C#N)nn1` [Compound B335], for which the “Rabbit Psoas IC25” value in assay [1] amounted to 100000 nM. In addition, the “Porcine Atria IC25” value in assay [2] is 9420 nM. Moreover, in assay [3], the “Porcine Ventricle IC25” value came to 100000 nM.
As for `C[C@@H](NC(=O)CN1C(=O)Nc2ccc(F)cc2C12CC2)c1cnc(C#N)cn1` [Compound B336], the “Rabbit Psoas IC25” value in assay [1] is 170 nM. For the same compound, in assay [2], the “Porcine Atria IC25” value is 100 nM. The “Porcine Ventricle IC25” value in assay [3] came out at 270 nM.
In the same order, the values of `C[C@H](NC(=O)CN1C(=O)Nc2ccc(F)cc2C12CC2)c1cnc(C#N)cn1` [Compound B337] are 100000 nM, 1010 nM and 7010 nM.
Take `Cc1nc([C@@H](C)NC(=O)CN2Cc3c(ccc(F)c3F)NC2=O)cnc1C#N` [Compound B338]: the “Rabbit Psoas IC25” value in assay [1] is 17150 nM. In assay [2], the “Porcine Atria IC25” value worked out at 80 nM. The “Porcine Ventricle IC25” value in assay [3] was 1670 nM.
For `Cc1nc(C(C)NC(=O)CN2Cc3c(ccc(F)c3F)NC2=O)no1` (stereo not drawn) [Compound B340], the “Rabbit Psoas IC25” value in assay [1] worked out at 100000 nM. For the same compound, the “Porcine Atria IC25” value in assay [2] worked out at 3800 nM. Moreover, the “Porcine Ventricle IC25” value in assay [3] was 100000 nM.
As to `C[C@@H](NC(=O)CN1Cc2c(ccc(F)c2F)NC1=O)c1ncnc(C#N)c1F` [Compound B341], the “Rabbit Psoas IC25” value in assay [1] was found to be 1680 nM. For the same compound, the “Porcine Atria IC25” value in assay [2] came out at 730 nM. Also, the “Porcine Ventricle IC25” value in assay [3] was 350 nM.
`C[C@H](NC(=O)CN1Cc2c(ccc(F)c2F)NC1=O)c1ncnc(C#N)c1F` [Compound B342]: the “Rabbit Psoas IC25” value in assay [1] was 2450 nM. Besides, the “Porcine Atria IC25” value in assay [2] came out at 930 nM. Besides, the “Porcine Ventricle IC25” value in assay [3] was 4850 nM.
Regarding `Cc1ncnc([C@@H](C)NC(=O)CN2Cc3c(ccc(F)c3F)NC2=O)c1F` [Compound B343], the “Rabbit Psoas IC25” value in assay [1] turned out to be 100000 nM. Also, in assay [2], the “Porcine Atria IC25” value turned out to be 4120 nM. Further, in assay [3], the “Porcine Ventricle IC25” value is 100000 nM.
On to `Cc1ncnc([C@H](C)NC(=O)CN2Cc3c(ccc(F)c3F)NC2=O)c1F` [Compound B344], for which, in assay [1], the “Rabbit Psoas IC25” value was found to be 2780 nM. Also, the “Porcine Atria IC25” value in assay [2] was 1290 nM. In addition, the “Porcine Ventricle IC25” value in assay [3] came out at 8840 nM.
On to `Cc1nnc(C(C)NC(=O)CN2Cc3c(ccc(F)c3F)NC2=O)o1` (stereo not drawn) [Compound B345], for which the “Rabbit Psoas IC25” value in assay [1] was 100000 nM. The “Porcine Atria IC25” value in assay [2] was found to be 57060 nM. The “Porcine Ventricle IC25” value in assay [3] turned out to be 100000 nM.
With `Cc1ncc(F)c([C@@H](C)NC(=O)CN2Cc3c(ccc(F)c3F)NC2=O)n1` [Compound B346], in assay [1], the “Rabbit Psoas IC25” value amounted to 59270 nM. In addition, in assay [2], the “Porcine Atria IC25” value stood at 220 nM. Moreover, in assay [3], the “Porcine Ventricle IC25” value is 1630 nM.
For the compound `Cc1ncc(F)c([C@H](C)NC(=O)CN2Cc3c(ccc(F)c3F)NC2=O)n1` [Compound B347], the “Rabbit Psoas IC25” value in assay [1] was found to be 100000 nM. Moreover, the “Porcine Atria IC25” value in assay [2] was found to be 100000 nM. In assay [3], the “Porcine Ventricle IC25” value worked out at 100000 nM.
On to `Cc1ncc(C#N)nc1[C@@H](C)NC(=O)CN1Cc2c(ccc(F)c2F)NC1=O` [Compound B348], for which, in assay [1], the “Rabbit Psoas IC25” value is 9360 nM. Further, the “Porcine Atria IC25” value in assay [2] was determined as 10170 nM. The “Porcine Ventricle IC25” value in assay [3] stood at 6790 nM.
For `Cc1ncc(C#N)nc1[C@H](C)NC(=O)CN1Cc2c(ccc(F)c2F)NC1=O` [Compound B349], the “Rabbit Psoas IC25” value in assay [1] was 5320 nM. For the same compound, in assay [2], the “Porcine Atria IC25” value was 220 nM. Besides, the “Porcine Ventricle IC25” value in assay [3] amounted to 830 nM.
Consider `O=C(CN1Cc2c(ccc(F)c2F)NC1=O)N[C@@H]1CCc2cc(F)cnc21` [Compound B350], for which, in assay [1], the “Rabbit Psoas IC25” value was determined as 620 nM. In addition, the “Porcine Atria IC25” value in assay [2] was 300 nM. Further, the “Porcine Ventricle IC25” value in assay [3] worked out at 500 nM.
Turning to `Cc1nc([C@H](C)NC(=O)CN2Cc3c(ccc(F)c3F)NC2=O)ncc1C#N` [Compound B353], the “Rabbit Psoas IC25” value in assay [1] was 2490 nM. The “Porcine Atria IC25” value in assay [2] turned out to be 1990 nM. Besides, the “Porcine Ventricle IC25” value in assay [3] was determined as 2240 nM.
